Reference: patent publication US7834164B2 (priority 2006, dated 2010)
Bridge positions count the residues as written; N and C are the ends. Square brackets hold non-standard residues; d marks the D form. Peptide text beside a SMILES is read from it. 1Nal = N[C@@H](Cc1cccc2ccccc12)C(=O)O

Key:
[1] = rat, in vivo, iv, 1 mg/kg
[2] = test system: IFN-g production in human whole blood; format: cell-based
[3] = test system: IL-2 production in human whole blood; format: cell-based
[4] = test system: IFNγ production from human PBMCs; format: cell-based
[5] = test system: IFNγ production from human PBMCs; format: cell-based; remark: listed apart in the source
[6] = test system: IL-2R on T cells in human whole blood; format: cell-based
[7] = test system: CD40L on T cells in human whole blood; format: cell-based
[8] = test system: AT-EAE model of multiple sclerosis; design: species or system Lewis rats; details: rat, in vivo, sc
[9] = biological target: T1, human Kv1.1 (Homo sapiens, UniProt Q09470); format: cell-based; details: read-out: Kv1.1 Analogue Activity (IC50)
T1 construct: expressed in transfected cells; host or cells: HEK293
T1 sequence (Q09470 whole entry): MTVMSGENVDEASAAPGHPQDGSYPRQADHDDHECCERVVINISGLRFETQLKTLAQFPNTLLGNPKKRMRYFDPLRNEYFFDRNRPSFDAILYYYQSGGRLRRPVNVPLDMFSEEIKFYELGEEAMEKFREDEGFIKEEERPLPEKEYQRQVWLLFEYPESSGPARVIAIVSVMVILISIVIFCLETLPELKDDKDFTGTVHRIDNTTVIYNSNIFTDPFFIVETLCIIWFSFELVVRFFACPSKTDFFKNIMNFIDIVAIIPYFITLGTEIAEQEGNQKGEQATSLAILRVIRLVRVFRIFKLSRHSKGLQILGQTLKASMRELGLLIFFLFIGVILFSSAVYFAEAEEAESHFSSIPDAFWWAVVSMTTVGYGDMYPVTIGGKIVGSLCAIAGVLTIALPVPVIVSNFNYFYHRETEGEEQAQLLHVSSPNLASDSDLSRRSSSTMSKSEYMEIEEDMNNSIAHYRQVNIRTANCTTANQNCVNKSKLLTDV

| Compound | time of significant suppression of Kv1.3 current (<70 POC) by 5% serum Test solutions [1] [h] | thapsigargin-induced IFN-g production in human whole blood (in words) [2] | thapsigargin-induced IL-2 production in human whole blood (in words) [3] | extent of inhibition of IFNg production [4] | extent of inhibition of IFNγ production [5] | thapsigargin-induced upregulation of the IL-2R on T cells in human whole blood (in words) [6] | thapsigargin-induced upregulation of CD40L on T cells in human whole blood (in words) [7] | average body weight lost [8] [g] | disease severity and survival (in words) [8] | onset of disease [8] [days] | IC50 [9] [nM] |
| --- | --- | --- | --- | --- | --- | --- | --- | --- | --- | --- | --- |
| CC[C@H](C)[C@@H]1NC(=O)[C@@H](NC(=O)[C@H](CO)NC(=O)[C@@H](N)CCCNC(=N)N)CSSC[C@@H](C(=O)O)NC(=O)[C@H]([C@@H](C)O)NC(=O)CNC(=O)[C@@H]2CSSC[C@@H]3NC(=O)[C@H](CCC(N)=O)NC(=O)[C@H](Cc4ccccc4)NC(=O)[C@H](C)NC(=O)[C@H]([C@@H](C)O)NC(=O)[C@H](CSSC[C@H](NC(=O)[C@H](Cc4ccccc4)NC(=O)[C@H](CO)NC(=O)[C@H](CC(C)C)NC(=O)[C@H](CCCNC(=N)N)NC(=O)[C@H](Cc4ccc(O)cc4)NC(=O)[C@H](CCCCN)NC(=O)[C@H](CCSC)NC(=O)[C@H](CO)NC(=O)[C@H](Cc4cnc[nH]4)NC(=O)[C@H](CCCCN)NC3=O)C(=O)N[C@@H](CCCNC(=N)N)C(=O)N[C@@H](CCCCN)C(=O)N[C@@H]([C@@H](C)O)C(=O)N2)NC(=O)[C@H](CCCNC(=N)N)NC(=O)[C@H](CO)NC(=O)[C@H](CCCCN)NC(=O)[C@@H]2CCCN2C(=O)[C@H]([C@@H](C)CC)NC(=O)[C@H]([C@@H](C)O)NC(=O)[C@H](CC(=O)O)NC1=O [ShK] | ≤ 1 | suppressed | suppressed | only partial inhibition | partial inhibition | suppressed | suppressed | 30 | developed severe disease and died | 4 |  |
| CC[C@H](C)[C@@H]1NC(=O)[C@H](Cc2cccc3ccccc23)NC(=O)[C@@H](NC(=O)[C@H](CCCCN)NC(=O)[C@@H](NC(=O)[C@H](CC(N)=O)NC(=O)[C@@H](NC(=O)[C@@H](NC(=O)[C@@H](NC(=O)CN)C(C)C)[C@@H](C)CC)[C@@H](C)CC)C(C)C)CSSC[C@@H]2NC(=O)[C@H](CCCCN)NC(=O)CNC(=O)[C@H](Cc3ccccc3)NC(=O)[C@H](CCCNC(=N)N)NC(=O)[C@H](CCSC)NC(=O)CNC(=O)[C@H](C)NC(=O)[C@H](CCCCN)NC(=O)[C@H](CCCCN)NC(=O)[C@@H]3CSSC[C@@H](C(=O)N[C@H](C(=O)N4CCC[C@H]4C(=O)N[C@@H](CCCCN)C(=O)O)[C@@H](C)O)NC(=O)[C@H](Cc4c[nH]cn4)NC(=O)[C@H](CSSC[C@H](NC(=O)[C@H](CCC(N)=O)NC(=O)[C@H](CCCNC(=N)N)NC(=O)[C@H](CO)NC1=O)C(=O)N[C@@H](CC(C)C)C(=O)N[C@@H](CCC(=O)O)C(=O)N1CCC[C@H]1C(=O)N3)NC(=O)[C@H](CCCCN)NC(=O)CNC(=O)[C@H](CC(N)=O)NC(=O)[C@H](CCSC)NC2=O [K9Nal] (H-GVIINVKC[1Nal]ISRQCLEPCKKAGMRFGKCMNGKCHCTPK-OH; disulfide 8-28, 14-33, 18-35) |  |  |  |  |  |  |  |  |  |  | 0.292 |
